In patent US9616125B2, “Stable nocathiacin lyophilized injection agent” (priority 2013, dated 2017):

How the values were obtained:
[1] = Aqueous solubility of nocathiacin I versus pH (shake 24 h, filtration, HPLC)
Procedure: Excessive purified material of nocathiacin I is added in test tubes with stopper respectively, and a certain amounts of buffer solutions with pH 2, pH 3, pH 4, pH 5, pH 6 and pH 7 are added to ensure that the solutions are in a supersaturated state all the time, and the solutions are shaken for 24 h under room temperature. Then the solutions are filtered through a 0.22 millipore filter, and the subsequent filtrate is taken and fed in a high performance liquid chromatography to measure the drug contents. The chromatogram conditions are as follows. • Chromatographic column: Waters Symmetry, 150 mm×4.6 mm, 5 μm.
Mobile phase: A. distilled water containing 0.05% TFA; and B. acetonitrile containing 0.05% TFA.
Gradient: Gradient elution for 32 min, 30%-60% B.
Column temperature: 40° C., and rate of flow: 1 ml/min
Detection wavelength: 362 nm, and sample volume: 10 μl.

[2] = tested on: vancomycin-resistant enterococcus (VRE); conditions: cited from earlier work
[3] = tested on: methicillin-resistant staphylococcus aureus (MRSA); conditions: cited from earlier work
[4] = tested on: mycobacterium tuberculosis; conditions: cited from earlier work
[5] = tested on: penicillin-resistant streptococcus pneumoniae (PRSP); conditions: cited from earlier work

Compound: C=C(NC(=O)c1csc(-c2nc3c(cc2O)-c2nc(cs2)C(=O)N[C@@H]([C@@H](C)O)C(=O)N/C(=C(\C)OC)c2nc(cs2)C(=O)N[C@@H]2c4nc(cs4)C(=O)N[C@@H](COC(=O)c4c5c6c(cccc6n4O)COC(=O)[C@@H](O[C@H]4C[C@](C)(O)[C@H](N(C)C)[C@H](C)O4)[C@H]2OC5)c2nc-3cs2)n1)C(N)=O.O=C(O)C(F)(F)F [nocathiacin I]
- concentration of nocathiacin I solution that can be obtained ([1]; pH value of the liquid formulation controlled below 6): more than 0.5 mg/mL
- solubility of nocathiacin I as a function of pH ([1]; within a scope of pH 1-7, FIG. 1): decreases with the increase of pH value

Compound: nocathiacin
- effective concentration [2]: less than 1 μg/ml
- effective concentration [3]: less than 1 μg/ml
- effective concentration [4]: less than 1 μg/ml
- effective concentration [5]: less than 1 μg/ml
